Assays:
Assay type in all cases: cell-based
HCAR1 = molecular target: T1, HCAR1 (Homo sapiens, UniProt Q9BXC0); assay: Calcium mobilization assay, HCAR1 in HEK293 stably expressing Gα16; details: in words; related receptor
T1 construct: expressed in transfected cells; host or cells: HEK293 stably expressing Gα16
Method: (§1) HEK293 cells were obtained from ATCC (Manassas, VA, USA) and cultured in DMEM supplemented with 10% (v/v) FBS, 100 mg/L penicillin, and 100 mg/L streptomycin in 5% CO2 at 37 °C. For transient transfection, ~2.5 × 10^6 cells were mixed with 2 µg plasmids in 200 µL transfection buffer, and electroporation was carried out with a Scientz-2C electroporation apparatus (Scientz Biotech, Ningbo, China). The experiments were carried out 24 h after transfection. HEK293 cell lines stably expressing Gα16 were constructed by our laboratory.
(§2) For OXGR1, plasmids were transfected into HEK293 (other receptors were transfected into HEK293 stably expressing Gα16) and seeded at a density of 4 × 10^4 per well into 96-well culture plates and incubated for 24 h at 37 °C in 5% CO2. The next day, Cells were incubated with 2 μM/L Fluo-4 AM in HBSS supplemented with 5.6 mM/L D-glucose and 250 μM/L sulfinpyrazone at 37 °C for 45 min. […] Three independent measurements were repeated, i.e., three different transfections, with three technical replicates performed for each experiment. EC50 and Emax values for each curve were calculated by Prism 8.0 software (GraphPad Software).

HCAR2 = molecular target: T2, HCAR2 (Homo sapiens, UniProt Q8TDS4); assay: Calcium mobilization assay, HCAR2 in HEK293 stably expressing Gα16; details: in words; related receptor
T2 construct: expressed in transfected cells; host or cells: HEK293 stably expressing Gα16
T2 sequence (Q8TDS4 whole entry): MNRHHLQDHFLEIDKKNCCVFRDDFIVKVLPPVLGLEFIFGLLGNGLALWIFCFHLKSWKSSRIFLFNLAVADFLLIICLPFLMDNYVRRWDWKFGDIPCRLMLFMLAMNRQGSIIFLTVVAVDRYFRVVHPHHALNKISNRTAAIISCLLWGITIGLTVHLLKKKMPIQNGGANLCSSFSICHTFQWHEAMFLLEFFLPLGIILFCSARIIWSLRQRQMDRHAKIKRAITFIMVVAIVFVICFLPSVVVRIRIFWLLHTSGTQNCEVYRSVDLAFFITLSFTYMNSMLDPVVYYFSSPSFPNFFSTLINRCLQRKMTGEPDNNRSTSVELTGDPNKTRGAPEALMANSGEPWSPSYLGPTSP
Method: as §1, §2

OXGR1 = OXGR1 (Homo sapiens, UniProt Q96P68); assay: Immunofluorescence assay of OXGR1 internalization; parameters: The full-length human OXGR1 and mutations were fused after the HA signal peptide and Flag tag; HA; expressed in transfected cells; host or cells: HEK293, transient; details: 300 μM AKG, 0 or 30 min at 37°C
Sequence of OXGR1 (Q96P68 whole entry, the tested form may be a part): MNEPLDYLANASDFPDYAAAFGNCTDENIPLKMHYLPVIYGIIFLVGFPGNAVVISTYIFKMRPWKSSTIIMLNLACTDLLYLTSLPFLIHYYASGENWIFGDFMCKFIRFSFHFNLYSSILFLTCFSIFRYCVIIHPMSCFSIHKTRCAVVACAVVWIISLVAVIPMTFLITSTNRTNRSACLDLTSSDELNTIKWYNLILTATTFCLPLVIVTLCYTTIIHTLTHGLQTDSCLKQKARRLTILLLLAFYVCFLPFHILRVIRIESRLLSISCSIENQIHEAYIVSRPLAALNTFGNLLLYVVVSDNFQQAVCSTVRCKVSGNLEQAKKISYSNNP
Method: Figure. R2 | Effect of L2997x50P mutant on activation and internalization of OXGR1. […]
responses. Responses were normalized to 100% for wild-type. Data are mean ± S.E.M. from three independent experiments (n = 3), with three technical replicates performed for each […]
experiment. […] HEK293 cells transiently […]
transfected with HA-tagged OXGR1 -WT or L299 7x50P mutant, were incubated with 300 μM […]
OXGR1 were stained with anti-HA (green). Cell nuclei were (1 picture or pasted object on this page, not shown here)

T1 sequence (Q9BXC0 whole entry, species assumed): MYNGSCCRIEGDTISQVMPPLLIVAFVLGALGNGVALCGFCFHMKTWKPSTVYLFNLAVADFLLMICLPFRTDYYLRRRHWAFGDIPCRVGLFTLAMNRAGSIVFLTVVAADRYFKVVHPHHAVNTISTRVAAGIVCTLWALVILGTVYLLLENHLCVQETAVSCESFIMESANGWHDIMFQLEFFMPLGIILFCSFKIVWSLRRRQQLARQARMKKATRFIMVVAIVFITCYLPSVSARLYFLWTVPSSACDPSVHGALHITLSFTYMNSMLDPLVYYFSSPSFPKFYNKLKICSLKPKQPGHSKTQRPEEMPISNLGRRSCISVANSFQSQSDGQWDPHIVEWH

SMILES | activation of HCAR1 (HCAR1) | activation of HCAR2 (HCAR2) | internalization of WT-OXGR1 (OXGR1)
C=C(CC(=O)O)C(=O)O [ITA, itaconate] | no detectable activation | no detectable activation | –
O=C(O)CCC(=O)C(=O)O [AKG, α-ketoglutarate] | – | – | internalizes

Source: paper PMC13372822 (The EMBO Journal, 2026)
